Data from ChEMBL document CHEMBL3885881, “DrugMatrix”.

Species: Rattus norvegicus
Assay: DrugMatrix - Regimen: Daily Repeat
Type: toxicity, organism-based, Sprague-Dawley
Design: regimen Daily Repeat, gender Male, age 6-8 weeks
Conditions: in vivo, po, route oral GAVAGE, vehicle .5 % CMC
[1] = 83 mg/kg, 72 h, tissue Blood, dose level High, time 3 day
[2] = 83 mg/kg, 72 h, tissue Plasma, dose level High, time 3 day
[3] = 83 mg/kg, 120 h, tissue Blood, dose level High, time 5 day
[4] = 83 mg/kg, 120 h, tissue Plasma, dose level High, time 5 day
[5] = […], 72 h, tissue Blood, dose 8.3 mg/Kg, dose level Low, time 3 day
[6] = […], 72 h, tissue Plasma, dose 8.3 mg/Kg, dose level Low, time 3 day
[7] = […], 120 h, tissue Blood, dose 8.3 mg/Kg, dose level Low, time 5 day
[8] = […], 120 h, tissue Plasma, dose 8.3 mg/Kg, dose level Low, time 5 day

SODIUM ORTHOVANAD
ABSOLUTE BASOPHIL [1]: 0 CELLS/uL
ABSOLUTE EOSINOPHIL [1]: 49.33 CELLS/uL
ABSOLUTE LYMPHOCYTE [1]: 13060 CELLS/uL
ABSOLUTE MONOCYTE [1]: 206 CELLS/uL
ABSOLUTE SEGMENTED NEUTROPHIL [1]: 2051.33 CELLS/uL
BASOPHIL [1]: 0%
EOSINOPHIL [1]: 0.33%
ERYTHROCYTE COUNT [1]: 5.99 x10E6/uL
LEUKOCYTE COUNT [1]: 15.37 x10E3/uL
LYMPHOCYTE [1]: 85%
MEAN CORPUSCULAR HEMOGLOBIN [1]: 23.17 pg
MEAN CORPUSCULAR HEMOGLOBIN CONCENTRATION [1]: 37.8 G/DL
NEUTROPHIL [1]: 13.33%
NUCLEATED RED BLOOD CELLS [1]: 0.67 /100WBC
PLATELET COUNT [1]: 1409 x10E3/uL
ALANINE AMINOTRANSFERASE [2]: 51.33 u/L
ALKALINE PHOSPHATASE [2]: 333.67 u/L
ASPARTATE AMINOTRANSFERASE [2]: 81.67 u/L
BLOOD UREA NITROGEN [2]: 13.33 mg/dL
CARBON DIOXIDE [2]: 16.67 mmol/L
CHOLESTEROL [2]: 69 mg/dL
CREATINE PHOSPHOKINASE [2]: 309.33 u/L
CREATININE [2]: 0.2 mg/dL
LACTATE DEHYDROGENASE [2]: 147.67 u/L
LIPASE [2]: 9 u/L
PHOSPHORUS [2]: 10.33 mg/dL
POTASSIUM [2]: 6.71 MEQ/L
SODIUM [2]: 146.67 MEQ/L
TOTAL BILIRUBIN [2]: 0.27 mg/dL
TOTAL PROTEIN [2]: 5.43 G/DL
URIC ACID [2]: 1.8 mg/dL
ABSOLUTE BASOPHIL [3]: 0 CELLS/uL
ABSOLUTE EOSINOPHIL [3]: 42.5 CELLS/uL
ABSOLUTE LYMPHOCYTE [3]: 9180 CELLS/uL
ABSOLUTE MONOCYTE [3]: 133 CELLS/uL
ABSOLUTE SEGMENTED NEUTROPHIL [3]: 1544.5 CELLS/uL
BASOPHIL [3]: 0%
EOSINOPHIL [3]: 0.5%
ERYTHROCYTE COUNT [3]: 6.11 x10E6/uL
HEMATOCRIT [3]: 36.85%
HEMOGLOBIN [3]: 13.8 G/DL
LEUKOCYTE COUNT [3]: 10.9 x10E3/uL
LYMPHOCYTE [3]: 84%
MEAN CORPUSCULAR HEMOGLOBIN [3]: 22.65 pg
MEAN CORPUSCULAR HEMOGLOBIN CONCENTRATION [3]: 37.45 G/DL
MEAN CORPUSCULAR VOLUME [3]: 60.35 fL
MONOCYTE [3]: 1%
NEUTROPHIL [3]: 14.5%
NUCLEATED RED BLOOD CELLS [3]: 0 /100WBC
PLATELET COUNT [3]: 1518 x10E3/uL
ALANINE AMINOTRANSFERASE [4]: 55 u/L
ALBUMIN [4]: 4.2 G/DL
ALKALINE PHOSPHATASE [4]: 268.5 u/L
ASPARTATE AMINOTRANSFERASE [4]: 90 u/L
BLOOD UREA NITROGEN [4]: 15.5 mg/dL
CARBON DIOXIDE [4]: 32.5 mmol/L
CHOLESTEROL [4]: 82 mg/dL
CREATINE PHOSPHOKINASE [4]: 294.5 u/L
CREATININE [4]: 0.22 mg/dL
LACTATE DEHYDROGENASE [4]: 221.5 u/L
LIPASE [4]: 14 u/L
POTASSIUM [4]: 6.81 MEQ/L
SODIUM [4]: 147.35 MEQ/L
TOTAL BILIRUBIN [4]: 0.15 mg/dL
TOTAL PROTEIN [4]: 6 G/DL
URIC ACID [4]: 1.65 mg/dL
ABSOLUTE BASOPHIL [5]: 0 CELLS/uL
ABSOLUTE EOSINOPHIL [5]: 0 CELLS/uL
ABSOLUTE MONOCYTE [5]: 61 CELLS/uL
ABSOLUTE SEGMENTED NEUTROPHIL [5]: 1531 CELLS/uL
BASOPHIL [5]: 0%
EOSINOPHIL [5]: 0%
ERYTHROCYTE COUNT [5]: 5.33 x10E6/uL
HEMATOCRIT [5]: 34.23%
HEMOGLOBIN [5]: 13.1 G/DL
LEUKOCYTE COUNT [5]: 14.33 x10E3/uL
LYMPHOCYTE [5]: 89%
MEAN CORPUSCULAR HEMOGLOBIN [5]: 24.6 pg
MEAN CORPUSCULAR HEMOGLOBIN CONCENTRATION [5]: 38.27 G/DL
MONOCYTE [5]: 0.33%
NEUTROPHIL [5]: 10.67%
NUCLEATED RED BLOOD CELLS [5]: 0 /100WBC
PLATELET COUNT [5]: 1191.67 x10E3/uL
ALANINE AMINOTRANSFERASE [6]: 51 u/L
ALBUMIN [6]: 4.1 G/DL
ALKALINE PHOSPHATASE [6]: 345.67 u/L
ASPARTATE AMINOTRANSFERASE [6]: 90.67 u/L
BLOOD UREA NITROGEN [6]: 12.67 mg/dL
CARBON DIOXIDE [6]: 22 mmol/L
CHLORIDE [6]: 108.67 MEQ/L
CHOLESTEROL [6]: 71.67 mg/dL
CREATINE PHOSPHOKINASE [6]: 295.67 u/L
CREATININE [6]: 0.21 mg/dL
LACTATE DEHYDROGENASE [6]: 309 u/L
LIPASE [6]: 11 u/L
PHOSPHORUS [6]: 11.73 mg/dL
POTASSIUM [6]: 6.03 MEQ/L
TOTAL BILIRUBIN [6]: 0.2 mg/dL
TOTAL PROTEIN [6]: 5.73 G/DL
URIC ACID [6]: 1.3 mg/dL
ABSOLUTE BASOPHIL [7]: 0 CELLS/uL
ABSOLUTE EOSINOPHIL [7]: 0 CELLS/uL
ABSOLUTE LYMPHOCYTE [7]: 10049 CELLS/uL
ABSOLUTE MONOCYTE [7]: 38 CELLS/uL
ABSOLUTE SEGMENTED NEUTROPHIL [7]: 579.67 CELLS/uL
BASOPHIL [7]: 0%
EOSINOPHIL [7]: 0%
ERYTHROCYTE COUNT [7]: 5.74 x10E6/uL
HEMATOCRIT [7]: 36.57%
LEUKOCYTE COUNT [7]: 10.67 x10E3/uL
LYMPHOCYTE [7]: 94.33%
MEAN CORPUSCULAR HEMOGLOBIN [7]: 23.4 pg
MEAN CORPUSCULAR HEMOGLOBIN CONCENTRATION [7]: 36.67 G/DL
MONOCYTE [7]: 0.33%
NEUTROPHIL [7]: 5.33%
NUCLEATED RED BLOOD CELLS [7]: 0.33 /100WBC
PLATELET COUNT [7]: 1343.67 x10E3/uL
ALANINE AMINOTRANSFERASE [8]: 63.33 u/L
ALKALINE PHOSPHATASE [8]: 318 u/L
ASPARTATE AMINOTRANSFERASE [8]: 80 u/L
CARBON DIOXIDE [8]: 24 mmol/L
CHOLESTEROL [8]: 69.33 mg/dL
CREATINE PHOSPHOKINASE [8]: 250 u/L
CREATININE [8]: 0.18 mg/dL
GLUCOSE [8]: 176.33 mg/dL
LACTATE DEHYDROGENASE [8]: 93.33 u/L
POTASSIUM [8]: 6.41 MEQ/L
SODIUM [8]: 147.03 MEQ/L
TOTAL BILIRUBIN [8]: 0.27 mg/dL
TOTAL PROTEIN [8]: 6.2 G/DL
URIC ACID [8]: 2.1 mg/dL
